ChEMBL document CHEMBL4507266, “Data for DCP probe BAY-784” (2021)

Assays:
[1] = target: Cyclin-dependent kinase 8 (Homo sapiens) (UniProt P49336); conditions: Compound concentration 1000.0 nM
[2] = target: RAC-gamma serine/threonine-protein kinase (Homo sapiens) (UniProt Q9Y243); conditions: Compound concentration 1000.0 nM
[3] = target: Rhodopsin kinase GRK7 (Homo sapiens) (UniProt Q8WTQ7); conditions: Compound concentration 1000.0 nM
[4] = target: Mitogen-activated protein kinase kinase kinase 3 (Homo sapiens) (UniProt Q99759); conditions: Compound concentration 1000.0 nM
[5] = target: Protein-tyrosine kinase 2-beta (Homo sapiens) (UniProt Q14289); conditions: Compound concentration 1000.0 nM
[6] = target: Cyclin-dependent kinase 16 (Homo sapiens) (UniProt Q00536); conditions: Compound concentration 1000.0 nM
[7] = target: Mitogen-activated protein kinase 11 (Homo sapiens) (UniProt Q15759); conditions: Compound concentration 1000.0 nM
[8] = system: Proto-oncogene tyrosine-protein kinase receptor Ret (Homo sapiens), P07949 [V804M]; conditions: Compound concentration 1000.0 nM
[9] = target: T1, Alpha-1D adrenergic receptor (Homo sapiens) (UniProt P25100); conditions: Compound concentration 10.0 uM
T1 sequence (whole entry): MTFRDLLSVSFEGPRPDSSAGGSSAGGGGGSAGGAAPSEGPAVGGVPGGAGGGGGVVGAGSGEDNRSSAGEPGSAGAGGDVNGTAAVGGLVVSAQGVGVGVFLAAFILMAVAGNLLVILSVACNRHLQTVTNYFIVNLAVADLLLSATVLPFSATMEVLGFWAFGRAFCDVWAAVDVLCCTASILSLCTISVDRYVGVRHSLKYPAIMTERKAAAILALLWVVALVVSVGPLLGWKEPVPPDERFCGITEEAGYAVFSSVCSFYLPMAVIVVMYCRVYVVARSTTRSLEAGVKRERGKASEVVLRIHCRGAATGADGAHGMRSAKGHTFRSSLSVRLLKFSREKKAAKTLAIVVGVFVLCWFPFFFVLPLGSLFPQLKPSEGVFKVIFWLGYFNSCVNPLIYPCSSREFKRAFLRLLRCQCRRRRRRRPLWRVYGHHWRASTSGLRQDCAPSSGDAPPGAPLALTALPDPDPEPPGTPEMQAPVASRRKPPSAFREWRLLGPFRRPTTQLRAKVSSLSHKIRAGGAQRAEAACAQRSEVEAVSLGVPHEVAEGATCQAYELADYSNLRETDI

[10] = system: Epidermal growth factor receptor (Homo sapiens), P00533 [L858R,T790M]; conditions: Compound concentration 1000.0 nM
[11] = target: Proto-oncogene tyrosine-protein kinase Src (Homo sapiens) (UniProt P12931); conditions: Compound concentration 1000.0 nM
[12] = system: Mast/stem cell growth factor receptor Kit (Homo sapiens), P10721 [D816H]; conditions: Compound concentration 1000.0 nM
[13] = target: SRSF protein kinase 1 (Homo sapiens) (UniProt Q96SB4); conditions: Compound concentration 1000.0 nM
[14] = target: Vascular endothelial growth factor receptor 2 (Homo sapiens) (UniProt P35968); conditions: Compound concentration 1000.0 nM
[15] = target: Sigma intracellular receptor 2 (Homo sapiens, UniProt Q5BJF2); experiment: GPCRScan assay: inhibition of Sigma 2; set-up: radioligand conc. used [nm] 5.0, parental cells HEKT
[16] = target: Leucine-rich repeat serine/threonine-protein kinase 2 (Homo sapiens) (UniProt Q5S007); conditions: Compound concentration 1000.0 nM
[17] = target: Serine/threonine-protein kinase PLK3 (Homo sapiens) (UniProt Q9H4B4); conditions: Compound concentration 1000.0 nM
[18] = target: Megakaryocyte-associated tyrosine-protein kinase (Homo sapiens) (UniProt P42679); conditions: Compound concentration 1000.0 nM
[19] = target: Ribosomal protein S6 kinase alpha-2 (Homo sapiens) (UniProt Q15349); conditions: Compound concentration 1000.0 nM
[20] = target: Ephrin type-A receptor 2 (Homo sapiens) (UniProt P29317); conditions: Compound concentration 1000.0 nM
[21] = target: Serine/threonine-protein kinase Nek3 (Homo sapiens) (UniProt P51956); conditions: Compound concentration 1000.0 nM
[22] = target: Serine/threonine-protein kinase WNK4 (Homo sapiens) (UniProt Q96J92); conditions: Compound concentration 1000.0 nM
[23] = target: Serine/threonine-protein kinase MARK1 (Homo sapiens) (UniProt Q9P0L2); conditions: Compound concentration 1000.0 nM
[24] = target: Non-receptor tyrosine-protein kinase TYK2 (Homo sapiens) (UniProt P29597); conditions: Compound concentration 1000.0 nM
[25] = target: Serine/threonine-protein kinase BRSK2 (Homo sapiens) (UniProt Q8IWQ3); conditions: Compound concentration 1000.0 nM
[26] = system: Tyrosine-protein kinase ABL1 (Homo sapiens), P00519 [H396P]; conditions: Compound concentration 1000.0 nM
[27] = target: Tyrosine-protein kinase receptor Tie-1 (Homo sapiens) (UniProt P35590); conditions: Compound concentration 1000.0 nM
[28] = target: Mitogen-activated protein kinase 1 (Homo sapiens) (UniProt P28482); conditions: Compound concentration 1000.0 nM
[29] = target: Serine/threonine-protein kinase RIO3 (Homo sapiens) (UniProt O14730); conditions: Compound concentration 1000.0 nM
[30] = target: Serine/threonine-protein kinase D3 (Homo sapiens) (UniProt O94806); conditions: Compound concentration 1000.0 nM
[31] = target: Ankyrin repeat and protein kinase domain-containing protein 1 (Homo sapiens) (UniProt Q8NFD2); conditions: Compound concentration 1000.0 nM
[32] = target: Tyrosine-protein kinase Tec (Homo sapiens) (UniProt P42680); conditions: Compound concentration 1000.0 nM
[33] = target: Ribosomal protein S6 kinase beta-1 (Homo sapiens) (UniProt P23443); conditions: Compound concentration 1000.0 nM
[34] = target: Serine/threonine-protein kinase TBK1 (Homo sapiens) (UniProt Q9UHD2); conditions: Compound concentration 1000.0 nM
[35] = system: Phosphatidylinositol 4,5-bisphosphate 3-kinase catalytic subunit alpha isoform (Homo sapiens), P42336 [H1047L]; conditions: Compound concentration 1000.0 nM
[36] = target: Tyrosine-protein kinase ABL1 (Homo sapiens) (UniProt P00519); conditions: Compound concentration 1000.0 nM
[37] = target: Discoidin domain-containing receptor 2 (Homo sapiens) (UniProt Q16832); conditions: Compound concentration 1000.0 nM
Chain of Discoidin domain-containing receptor 2 (Homo sapiens) (Q16832 whole entry, the tested form may be a part): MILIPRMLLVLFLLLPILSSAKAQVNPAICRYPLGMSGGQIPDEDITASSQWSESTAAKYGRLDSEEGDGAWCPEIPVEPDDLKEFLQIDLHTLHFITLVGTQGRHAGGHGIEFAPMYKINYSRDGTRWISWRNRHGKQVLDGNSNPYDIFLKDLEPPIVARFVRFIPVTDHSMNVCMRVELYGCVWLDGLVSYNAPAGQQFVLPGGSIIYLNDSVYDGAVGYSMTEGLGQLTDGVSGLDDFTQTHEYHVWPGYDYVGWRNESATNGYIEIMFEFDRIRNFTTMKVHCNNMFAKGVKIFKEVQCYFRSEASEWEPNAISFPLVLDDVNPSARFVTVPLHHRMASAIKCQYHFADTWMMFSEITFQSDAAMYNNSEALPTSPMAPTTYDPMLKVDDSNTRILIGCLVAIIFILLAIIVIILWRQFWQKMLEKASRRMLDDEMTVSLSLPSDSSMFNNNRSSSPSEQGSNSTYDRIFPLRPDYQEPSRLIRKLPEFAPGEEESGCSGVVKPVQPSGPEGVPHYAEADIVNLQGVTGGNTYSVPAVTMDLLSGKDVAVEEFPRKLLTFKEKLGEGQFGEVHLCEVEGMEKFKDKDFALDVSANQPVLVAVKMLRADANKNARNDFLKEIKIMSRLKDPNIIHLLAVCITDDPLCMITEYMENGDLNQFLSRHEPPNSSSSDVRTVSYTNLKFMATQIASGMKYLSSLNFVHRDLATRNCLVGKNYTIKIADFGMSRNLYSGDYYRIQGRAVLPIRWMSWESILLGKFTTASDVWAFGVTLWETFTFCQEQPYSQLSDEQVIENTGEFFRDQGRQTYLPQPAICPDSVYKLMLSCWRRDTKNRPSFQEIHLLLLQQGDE

Chain of Proto-oncogene tyrosine-protein kinase Src (Homo sapiens) (P12931 2-536 limits assumed): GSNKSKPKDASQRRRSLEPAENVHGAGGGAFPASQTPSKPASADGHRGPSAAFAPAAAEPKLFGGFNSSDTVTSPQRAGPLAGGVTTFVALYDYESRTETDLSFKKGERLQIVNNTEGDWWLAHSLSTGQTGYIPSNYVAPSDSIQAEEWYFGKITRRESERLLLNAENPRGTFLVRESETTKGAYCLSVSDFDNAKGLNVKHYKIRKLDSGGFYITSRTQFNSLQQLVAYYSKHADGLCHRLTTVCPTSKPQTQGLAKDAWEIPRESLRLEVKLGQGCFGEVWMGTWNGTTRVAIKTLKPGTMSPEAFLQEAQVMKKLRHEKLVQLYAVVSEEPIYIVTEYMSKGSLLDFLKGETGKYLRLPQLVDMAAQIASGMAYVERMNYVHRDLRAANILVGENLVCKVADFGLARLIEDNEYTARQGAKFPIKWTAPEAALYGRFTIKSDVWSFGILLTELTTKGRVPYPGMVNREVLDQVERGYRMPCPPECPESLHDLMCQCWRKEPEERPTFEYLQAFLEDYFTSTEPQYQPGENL
Chain of Megakaryocyte-associated tyrosine-protein kinase (Homo sapiens) (P42679 whole entry): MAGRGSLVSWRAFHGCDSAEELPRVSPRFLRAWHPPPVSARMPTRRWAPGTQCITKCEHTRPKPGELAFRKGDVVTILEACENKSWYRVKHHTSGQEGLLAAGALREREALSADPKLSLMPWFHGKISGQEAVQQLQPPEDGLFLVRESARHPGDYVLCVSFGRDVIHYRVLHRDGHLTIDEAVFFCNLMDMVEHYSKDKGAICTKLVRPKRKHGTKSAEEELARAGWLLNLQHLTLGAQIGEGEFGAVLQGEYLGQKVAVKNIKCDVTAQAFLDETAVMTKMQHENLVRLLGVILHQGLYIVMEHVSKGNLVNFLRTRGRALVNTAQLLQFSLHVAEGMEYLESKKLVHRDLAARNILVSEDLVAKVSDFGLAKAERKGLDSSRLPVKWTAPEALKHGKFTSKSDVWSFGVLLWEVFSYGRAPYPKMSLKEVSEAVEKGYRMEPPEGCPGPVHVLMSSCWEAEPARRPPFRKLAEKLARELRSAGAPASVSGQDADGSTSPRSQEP
Chain of SRSF protein kinase 1 (Homo sapiens) (Q96SB4 whole entry): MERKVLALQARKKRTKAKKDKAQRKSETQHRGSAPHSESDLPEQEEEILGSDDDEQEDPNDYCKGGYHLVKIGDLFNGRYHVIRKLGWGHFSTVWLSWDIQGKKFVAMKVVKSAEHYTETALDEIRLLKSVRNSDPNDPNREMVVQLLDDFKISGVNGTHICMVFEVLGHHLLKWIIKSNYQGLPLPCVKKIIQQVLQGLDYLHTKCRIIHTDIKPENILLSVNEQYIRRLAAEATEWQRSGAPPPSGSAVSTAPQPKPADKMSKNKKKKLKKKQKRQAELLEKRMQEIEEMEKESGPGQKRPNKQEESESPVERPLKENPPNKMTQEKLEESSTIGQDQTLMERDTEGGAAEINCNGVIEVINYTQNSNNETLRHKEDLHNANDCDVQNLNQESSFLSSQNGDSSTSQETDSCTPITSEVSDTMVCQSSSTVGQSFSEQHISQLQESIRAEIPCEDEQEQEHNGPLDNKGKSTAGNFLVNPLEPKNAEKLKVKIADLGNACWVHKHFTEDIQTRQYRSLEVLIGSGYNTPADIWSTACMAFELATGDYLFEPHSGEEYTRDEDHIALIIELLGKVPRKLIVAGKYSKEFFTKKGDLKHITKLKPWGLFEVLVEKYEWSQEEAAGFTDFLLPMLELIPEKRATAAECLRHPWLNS
Chain of Mitogen-activated protein kinase 1 (Homo sapiens) (P28482 whole entry): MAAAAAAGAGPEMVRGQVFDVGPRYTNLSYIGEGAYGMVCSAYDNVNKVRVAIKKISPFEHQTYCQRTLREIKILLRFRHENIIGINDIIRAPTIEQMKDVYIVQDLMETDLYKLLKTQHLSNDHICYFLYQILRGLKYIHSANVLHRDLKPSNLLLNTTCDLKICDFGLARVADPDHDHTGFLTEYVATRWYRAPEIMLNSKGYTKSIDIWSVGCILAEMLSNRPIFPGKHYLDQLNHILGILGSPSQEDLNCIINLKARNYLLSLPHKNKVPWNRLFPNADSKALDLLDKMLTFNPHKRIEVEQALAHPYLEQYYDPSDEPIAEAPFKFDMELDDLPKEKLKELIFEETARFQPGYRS
Chain of Mast/stem cell growth factor receptor Kit (Homo sapiens), P10721 [D816H] (P10721 whole entry D816H): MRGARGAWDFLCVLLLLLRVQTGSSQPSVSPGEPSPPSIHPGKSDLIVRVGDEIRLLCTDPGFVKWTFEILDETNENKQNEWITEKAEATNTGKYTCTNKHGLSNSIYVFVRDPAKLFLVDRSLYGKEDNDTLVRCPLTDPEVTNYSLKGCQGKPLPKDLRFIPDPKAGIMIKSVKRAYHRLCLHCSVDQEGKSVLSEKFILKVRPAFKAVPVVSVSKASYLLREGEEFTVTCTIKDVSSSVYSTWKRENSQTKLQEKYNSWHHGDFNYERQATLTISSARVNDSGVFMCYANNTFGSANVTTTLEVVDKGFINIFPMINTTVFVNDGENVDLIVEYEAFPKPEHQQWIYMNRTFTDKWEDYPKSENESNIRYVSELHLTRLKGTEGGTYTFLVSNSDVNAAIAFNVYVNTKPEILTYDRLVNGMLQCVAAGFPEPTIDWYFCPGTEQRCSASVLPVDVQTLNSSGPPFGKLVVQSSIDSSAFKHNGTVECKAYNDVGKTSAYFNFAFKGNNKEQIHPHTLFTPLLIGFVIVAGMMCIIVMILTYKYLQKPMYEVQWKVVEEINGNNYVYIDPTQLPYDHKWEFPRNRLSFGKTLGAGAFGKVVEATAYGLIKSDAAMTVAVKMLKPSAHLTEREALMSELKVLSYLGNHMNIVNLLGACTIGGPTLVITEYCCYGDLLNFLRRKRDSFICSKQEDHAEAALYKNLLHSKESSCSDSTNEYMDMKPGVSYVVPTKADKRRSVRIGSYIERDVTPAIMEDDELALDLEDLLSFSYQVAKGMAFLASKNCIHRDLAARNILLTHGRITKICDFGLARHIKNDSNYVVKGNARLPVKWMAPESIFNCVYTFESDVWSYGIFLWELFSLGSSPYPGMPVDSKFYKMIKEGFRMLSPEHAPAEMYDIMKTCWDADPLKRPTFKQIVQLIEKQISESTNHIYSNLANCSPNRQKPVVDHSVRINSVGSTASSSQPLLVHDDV
Chain of Serine/threonine-protein kinase PLK3 (Homo sapiens) (Q9H4B4 whole entry, looked up): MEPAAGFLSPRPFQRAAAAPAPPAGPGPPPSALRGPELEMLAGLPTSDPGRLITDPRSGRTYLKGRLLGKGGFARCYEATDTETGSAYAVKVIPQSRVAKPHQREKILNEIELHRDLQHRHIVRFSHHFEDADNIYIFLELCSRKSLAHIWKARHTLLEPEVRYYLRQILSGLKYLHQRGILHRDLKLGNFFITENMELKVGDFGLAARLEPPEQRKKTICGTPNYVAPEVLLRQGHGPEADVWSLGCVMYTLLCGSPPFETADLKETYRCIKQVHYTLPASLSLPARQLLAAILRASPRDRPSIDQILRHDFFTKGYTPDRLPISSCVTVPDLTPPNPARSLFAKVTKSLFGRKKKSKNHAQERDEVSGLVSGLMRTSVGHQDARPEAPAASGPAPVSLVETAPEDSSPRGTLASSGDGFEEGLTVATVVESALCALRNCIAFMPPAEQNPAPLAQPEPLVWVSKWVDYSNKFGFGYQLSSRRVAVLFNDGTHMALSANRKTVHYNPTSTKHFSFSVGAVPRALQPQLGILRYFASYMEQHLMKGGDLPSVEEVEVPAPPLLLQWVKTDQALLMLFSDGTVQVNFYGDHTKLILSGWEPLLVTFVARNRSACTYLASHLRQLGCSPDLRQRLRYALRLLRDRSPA
Chain of RAC-gamma serine/threonine-protein kinase (Homo sapiens) (Q9Y243 whole entry): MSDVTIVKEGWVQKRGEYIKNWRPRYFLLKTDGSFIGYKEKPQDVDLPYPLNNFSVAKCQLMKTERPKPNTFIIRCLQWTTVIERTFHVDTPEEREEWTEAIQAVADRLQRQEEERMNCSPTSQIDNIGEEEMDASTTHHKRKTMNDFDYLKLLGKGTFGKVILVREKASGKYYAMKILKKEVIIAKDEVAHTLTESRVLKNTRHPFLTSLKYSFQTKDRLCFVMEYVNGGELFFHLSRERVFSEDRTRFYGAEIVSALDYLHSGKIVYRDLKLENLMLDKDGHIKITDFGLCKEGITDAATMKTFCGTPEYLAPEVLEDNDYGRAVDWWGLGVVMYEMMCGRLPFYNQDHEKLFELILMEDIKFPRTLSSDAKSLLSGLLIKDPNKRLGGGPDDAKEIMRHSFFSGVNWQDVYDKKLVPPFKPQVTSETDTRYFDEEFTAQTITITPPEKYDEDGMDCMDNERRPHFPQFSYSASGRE

`O=C(NCc1ncc(C(F)(F)F)cc1Cl)c1ccc2c(c1)C1(CCS(=O)(=O)CC1)[C@H](C1CC1)N2S(=O)(=O)c1ccc(F)cc1` [BAY-784] was tested, and the residual activity [1] was 80%, the residual activity [2] was 100% and the residual activity [3] was 80%. The residual activity [4] was 74%, the residual activity [5] was 100% and the residual activity [6] was 100%. It also gave a residual activity [7] of 100%, a residual activity [8] of 100% and an inhibition [9] of 4.13%. It also gave a residual activity [10] of 95%, a residual activity [11] of 98% and a residual activity [12] of 79%. The residual activity [13] was 72%, the residual activity [14] was 83% and the Ki [15] was 1110 nM. For the same molecule, the residual activity [16] was 82%, the residual activity [17] was 92% and the residual activity [18] was 73%. The residual activity [19] was 100%, the residual activity [20] was 100% and the residual activity [21] was 100%. The residual activity [22] was 91%, the residual activity [23] was 100% and the residual activity [24] was 79%. It also gave a residual activity [25] of 100%, a residual activity [26] of 100% and a residual activity [27] of 100%. The residual activity [28] was 81%, the residual activity [29] was 69% and the residual activity [30] was 100%. It also gave a residual activity [31] of 89%, a residual activity [32] of 100% and a residual activity [33] of 64%. The residual activity [34] was 80%, the residual activity [35] was 77% and the residual activity [36] was 71%. For the same molecule, the residual activity [37] was 78%.

Molecule `O=C(NCc1ncc(C(F)(F)F)cc1Cl)c1ccc2c(c1)C1(CCS(=O)(=O)CC1)[C@@H](C1CC1)N2S(=O)(=O)c1ccc(F)cc1` [BAY-786] has a residual activity [1] of 63%, a residual activity [2] of 86% and a residual activity [3] of 65%. The residual activity [4] was 60%, the residual activity [5] was 100% and the residual activity [6] was 80%. The residual activity [7] was 100%, the residual activity [8] was 100% and the inhibition [9] was -3.69%. It also gave a residual activity [10] of 75%, a residual activity [11] of 98% and a residual activity [12] of 64%. It also gave a residual activity [13] of 96%, a residual activity [14] of 80% and a Ki [15] of 2000 nM. The residual activity [16] was 98%, the residual activity [17] was 82% and the residual activity [18] was 74%. The residual activity [19] was 93%, the residual activity [20] was 84% and the residual activity [21] was 100%. The residual activity [22] was 100%, the residual activity [23] was 100% and the residual activity [24] was 73%. The residual activity [25] was 100%, the residual activity [26] was 100% and the residual activity [27] was 95%. For the same molecule, the residual activity [28] was 83%, the residual activity [29] was 72% and the residual activity [30] was 100%. It also gave a residual activity [31] of 76%, a residual activity [32] of 100% and a residual activity [33] of 72%. The residual activity [34] was 84%, the residual activity [35] was 85% and the residual activity [36] was 86%. For the same molecule, the residual activity [37] was 67%.
